Experiments:
[1] = tested on: GP2 (DNA, aptamer) GGAGGCTCTCGGGACGACGGTGTGGCCCGTGGTGTCACTAATGAAGGGATTCATTTCAGTCGTCCCGATGCTGCAATCGTAA; assay: structure-switching fluorescence titration; settings: 500 mM NaCl, 10 mM MgCl2, 5 mM KCl; 20 mM HEPES pH 7.4, room temperature; dabcyl-cDNA displaced; ligand stocks up to 200 mM
[2] = tested on: GP1 (DNA, aptamer) GGAGGCTCTCGGGACGACGGGAGCATCATTCTGAGTGTTATGTGGATTGATACGTCTGGTCGTCCCGATGCTGCAATCGTAA; assay: structure-switching fluorescence titration; settings: 500 mM NaCl, 10 mM MgCl2, 5 mM KCl; 20 mM HEPES pH 7.4, room temperature; dabcyl-cDNA displaced; ligand stocks up to 200 mM
[3] = tested on: GP2 (DNA, aptamer) GGAGGCTCTCGGGACGACGGTGTGGCCCGTGGTGTCACTAATGAAGGGATTCATTTCAGTCGTCCCGATGCTGCAATCGTAA; assay: structure-switching fluorescence titration, Kd = Kd,eff1/Kd,eff2; settings: 500 mM NaCl, 10 mM MgCl2, 5 mM KCl; 20 mM HEPES pH 7.4, ~23 °C; dabcyl-cDNA displaced (sequence not in text); 50 nM each strand
[4] = tested on: GP1 (DNA, aptamer) GGAGGCTCTCGGGACGACGGGAGCATCATTCTGAGTGTTATGTGGATTGATACGTCTGGTCGTCCCGATGCTGCAATCGTAA; assay: as above; settings: 500 mM NaCl, 10 mM MgCl2, 5 mM KCl; 20 mM HEPES pH 7.4, ~23 °C; dabcyl-cDNA displaced (sequence not in text); 50 nM each strand

binding [1]	binding [2]	Kd [3]	Kd [4]	SMILES
no	no			COC(=O)C1=CO[C@@H](O)[C@@H]2C(CO)=CC[C@H]12
		~ 2.0 μM	~ 6.1 μM	COC(=O)C1=CO[C@@H](O[C@@H]2O[C@H](CO)[C@@H](O)[C@H](O)[C@H]2O)[C@@H]2C(CO)=CC[C@H]12
no	no			OC[C@H]1OC(O)[C@H](O)[C@@H](O)[C@@H]1O (stereo partly drawn)

Reference: publication PMC6155188 (2017)
